One experiment concerns K. pneumoniae ATCC 13883. Put plainly: Antibacterial activity: MIC/MBC, MIC with PAβN, disc-diffusion. It counts as cell-based, Klebsiella pneumoniae. Particulars: K. pneumoniae ATCC 13883; for MIC: Klebsiella pneumoniae, ATCC13883, read-out: MIC; for -fold reduction of MIC in the presence of PAβN: PAβN 20 μg mL^−1, MHB + 1 mM MgSO4. As to the method: Direct antimicrobial activity was determined against the following standard strains: (1) Gram-positive cocci: methicillin-sensitive Staphylococcus aureus ATCC 6538P (MSSA), methicillin-resistant S. aureus subsp. aureus ATCC 43300 (MRSA), S. epidermidis ATCC 12228, Enterococcus faecium ATCC 6057, E. faecalis ATCC 29212, Bacillus subtilis ATCC 6633; (2) Gram-negative bacteria from Enterobacteriales order: Klebsiella pneumoniae ATCC 13883, Escherichia coli ATCC 25922, Enterobacter cloacae DSM 6234, Proteus mirabilis ATCC 12453, Serratia marcescens ATCC 13880; (3) Gram-negative non-fermentative rods: Acinetobacter baumannii ATCC 19606, Pseudomonas aeruginosa ATCC 27853, Stenotrophomonas maltophilia ATCC 12714, S. maltophilia ATCC 13637, Burkholderia cepacia ATCC 25416, Bordetella bronchiseptica ATCC 4617; (4) yeasts: Candida albicans ATCC 90028, C. krusei ATCC 6258, C. parapsilosis ATCC 22019, C. tropicalis (Castellani) Berkhout ATCC 750, C. tropicalis IBA 171, C. guilliermondii IBA 155, and Saccharomyces cerevisiae ATCC 9763. Moreover, 5 clinical strains of methicillin-resistant S. aureus were also included: NMI 664 K, NMI 1576 K, NMI 1712 K, NMI 1991 K, and NMI 2541 K. All strains were stored at −80 °C. Prior to testing, each bacterial strain was subcultured twice on tryptic soy agar TSA (bioMerieux) medium and yeast strains on Sabouraud dextrose agar (bioMerieux) for 24–48 h at 30 °C to ensure viability. The antimicrobial activity was evaluated as previously described[26] by the disc-diffusion method and the MIC determination assays according to the EUCAST (ref. [71] and [72]) and CLSI (ref. [53] and [73]) recommendations. Assessment of bactericidal (MBC) and fungicidal (MFC) activities was performed according to the CLSI recommendations.[54,74] […] The new benzosiloxaboroles were dissolved in DMSO (Sigma).
Considering that the MDR efflux pumps often contribute to Gram-negative rod resistance, the MIC values of studied agents, with or without the pump inhibitor, PAβN (20 μg mL^−1) (Sigma), were determined.[75] The MIC was determined using Mueller–Hinton II broth medium (MHB) (Becton Dickinson) by the broth microdilution method, according to the CLSI guideliness.[53] To minimize the influence of PAβN on the destabilization of bacterial cell covers, the tests were conducted in the presence of 1 mM MgSO4 (Sigma).[76] At least a 4-fold reduction in the MIC value after the addition of PAβN was considered significant.[56,77]

The subject of another experiment is S. aureus ATCC 6538P. The experiment in a line: Antibacterial activity: MIC/MBC determination and disc-diffusion. It counts as cell-based, Staphylococcus aureus. As to conditions: S. aureus ATCC 6538P; for diameter of inhibition zone: disc-diffusion, — = zone not observed; for MBC / MIC: Staphylococcus aureus, ATCC6538P; for MIC: read-out: MIC. As for the experimental part:
Direct antimicrobial activity was determined against the following standard strains: (1) Gram-positive cocci: methicillin-sensitive Staphylococcus aureus ATCC 6538P (MSSA), methicillin-resistant S. aureus subsp. aureus ATCC 43300 (MRSA), S. epidermidis ATCC 12228, Enterococcus faecium ATCC 6057, E. faecalis ATCC 29212, Bacillus subtilis ATCC 6633; (2) Gram-negative bacteria from Enterobacteriales order: Klebsiella pneumoniae ATCC 13883, Escherichia coli ATCC 25922, Enterobacter cloacae DSM 6234, Proteus mirabilis ATCC 12453, Serratia marcescens ATCC 13880; (3) Gram-negative non-fermentative rods: Acinetobacter baumannii ATCC 19606, Pseudomonas aeruginosa ATCC 27853, Stenotrophomonas maltophilia ATCC 12714, S. maltophilia ATCC 13637, Burkholderia cepacia ATCC 25416, Bordetella bronchiseptica ATCC 4617; (4) yeasts: Candida albicans ATCC 90028, C. krusei ATCC 6258, C. parapsilosis ATCC 22019, C. tropicalis (Castellani) Berkhout ATCC 750, C. tropicalis IBA 171, C. guilliermondii IBA 155, and Saccharomyces cerevisiae ATCC 9763. Moreover, 5 clinical strains of methicillin-resistant S. aureus were also included: NMI 664 K, NMI 1576 K, NMI 1712 K, NMI 1991 K, and NMI 2541 K. All strains were stored at −80 °C. Prior to testing, each bacterial strain was subcultured twice on tryptic soy agar TSA (bioMerieux) medium and yeast strains on Sabouraud dextrose agar (bioMerieux) for 24–48 h at 30 °C to ensure viability. The antimicrobial activity was evaluated as previously described[26] by the disc-diffusion method and the MIC determination assays according to the EUCAST (ref. [71] and [72]) and CLSI (ref. [53] and [73]) recommendations. Assessment of bactericidal (MBC) and fungicidal (MFC) activities was performed according to the CLSI recommendations.[54,74] The following reference agents were used: fluconazole (in the case of fungi), linezolid (for Gram-positive bacteria), and nitrofurantoin (for Gram-negative rods). The new benzosiloxaboroles were dissolved in DMSO (Sigma).

[1] abbreviates: read-out: MBC (first MBC where Eagle effect).

Values after ≈ are worked out from the molar mass of the structure shown. Read-outs that look alike come from different tables or passages of the source.

On to `C[Si]1(C)OB(O)c2cc(F)c(S)c(F)c21` [Compound 1e, 5,7-Difluoro-6-mercapto-1,1-dimethylbenzo[c][1,2,5]oxasilaborol-3(1H)-ol], for which the MIC in the experiment on K. pneumoniae ATCC 13883 is over 400 µg/mL; in the experiment with S. aureus ATCC 6538P, 12.5 µg/mL (≈ 50.8 µM). The “diameter of inhibition zone” value in the experiment on S. aureus ATCC 6538P is recorded as 19 mm. Moreover, the minimal bactericidal concentration (MBC) in the experiment on S. aureus ATCC 6538P (setting [1]) worked out at 25 µg/mL (≈ 102 µM).
Turning to `C[Si]1(C)OB(O)c2ccc(S)c(F)c21` [Compound 2e, 7-Fluoro-6-mercapto-1,1-dimethylbenzo[c][1,2,5]oxasilaborol-3(1H)-ol], the MIC with K. pneumoniae ATCC 13883 is over 100 µg/mL. For the same compound, in the experiment on S. aureus ATCC 6538P, the “diameter of inhibition zone” value is 20 mm and the MIC was determined as 12.5 µg/mL (≈ 54.8 µM). For the same compound, in the experiment on S. aureus ATCC 6538P (setting [1]), the MBC turned out to be 25 µg/mL (≈ 110 µM).
On the same counts, the results for `CC(=O)CCSc1c(F)cc2c(c1F)[Si](C)(C)OB2O` [Compound 3, 4-((5,7-Difluoro-3-hydroxy-1,1-dimethyl-1,3-dihydrobenzo[c][1,2,5]oxasilaborol-6-yl)thio)butan-2-one] are over 400 µg/mL, 23 mm, 50 µg/mL (≈ 158 µM) and 100 µg/mL (≈ 316 µM).
Turning to `COC(=O)CCSc1ccc2c(c1F)[Si](C)(C)OB2O` [Compound 4, Methyl 3-((7-fluoro-3-hydroxy-1,1-dimethyl-1,3-dihydrobenzo[c][1,2,5]oxasilaborol-6-yl)thio)propanoate], the “-fold reduction of MIC in the presence of PAβN” value in the experiment with K. pneumoniae ATCC 13883 is 8 -fold. The figures for the MIC with K. pneumoniae ATCC 13883 and with S. aureus ATCC 6538P were over 400 µg/mL and 12.5 µg/mL (≈ 39.8 µM), respectively. Also, the “diameter of inhibition zone” value in the experiment with S. aureus ATCC 6538P was determined as 27 mm. The MBC was found to be 25 µg/mL (≈ 79.6 µM) in the experiment on S. aureus ATCC 6538P (setting [1]) and 400 µg/mL (≈ 1270 µM) in the experiment with S. aureus ATCC 6538P (value after the slash, read-out: second MBC (Eagle effect)).
On to `C[Si]1(C)OB(O)c2cc(F)c(SCCC(=O)ON3C(=O)CCC3=O)c(F)c21` [Compound 5, 2,5-Dioxopyrrolidin-1-yl 3-((5,7-difluoro-3-hydroxy-1,1-dimethyl-1,3-dihydrobenzo-[c][1,2,5]oxasilaborol-6-yl)thio)propanoate], for which the MIC with K. pneumoniae ATCC 13883 was over 400 µg/mL; in the experiment on S. aureus ATCC 6538P, 400 µg/mL (≈ 963 µM). In the experiment with S. aureus ATCC 6538P, the “diameter of inhibition zone” value was found to be 15 mm.
Take `C[Si]1(C)OB(O)c2cc(F)c(SCCC(N)=O)c(F)c21` [Compound 7, 3-((5,7-Difluoro-3-hydroxy-1,1-dimethyl-1,3-dihydrobenzo[c][1,2,5]oxasilaborol-6-yl)thio)propanamide]: the MIC was over 400 µg/mL with K. pneumoniae ATCC 13883 and 50 µg/mL (≈ 158 µM) with S. aureus ATCC 6538P. Besides, the “diameter of inhibition zone” value in the experiment on S. aureus ATCC 6538P is recorded as 24 mm.
On the same counts, the results for `C[Si]1(C)OB(O)c2cc(F)c(SCCC(=O)N3CCOCC3)c(F)c21` [Compound 8, 3-((5,7-Difluoro-3-hydroxy-1,1-dimethyl-1,3-dihydrobenzo[c][1,2,5]oxasilaborol-6-yl)thio)-1-morpholinopropan-1-one] are over 400 µg/mL, 50 µg/mL (≈ 129 µM) and 25 mm.
With `C[Si]1(C)OB(O)c2cc(F)c(SCCC(=O)Nc3ncccn3)c(F)c21` [Compound 9, 3-((5,7-Difluoro-3-hydroxy-1,1-dimethyl-1,3-dihydrobenzo[c][1,2,5]oxasilaborol-6-yl)thio)-N-(pyrimidin-2-yl)propanamide], in the experiment on K. pneumoniae ATCC 13883, the MIC is over 400 µg/mL. In the experiment on S. aureus ATCC 6538P, the “diameter of inhibition zone” value came out at 17 mm and the minimum inhibitory concentration (MIC) is 25 µg/mL (≈ 63.2 µM). In addition, the MBC with S. aureus ATCC 6538P (setting [1]) was found to be 400 µg/mL (≈ 1010 µM).
For `C[Si]1(C)OB(O)c2cc(F)c(SCCC(=O)Nc3cnccn3)c(F)c21` [Compound 10, 3-((5,7-Difluoro-3-hydroxy-1,1-dimethyl-1,3-dihydrobenzo[c][1,2,5]oxasilaborol-6-yl)thio)-N-(pyrazin-2-yl)propanamide], the MIC with K. pneumoniae ATCC 13883 is over 400 µg/mL. For the same compound, in the experiment on S. aureus ATCC 6538P, the “diameter of inhibition zone” value was 24 mm and the MIC turned out to be 50 µg/mL (≈ 126 µM). Also, the MBC with S. aureus ATCC 6538P (setting [1]) stood at 400 µg/mL (≈ 1010 µM).
On the same counts, the results for `Cc1cc(NC(=O)CCSc2c(F)cc3c(c2F)[Si](C)(C)OB3O)no1` [Compound 11, 3-((5,7-Difluoro-3-hydroxy-1,1-dimethyl-1,3-dihydrobenzo[c][1,2,5]oxasilaborol-6-yl)thio)-N-(5-methylisoxazol-3-yl)propanamide] are over 400 µg/mL, 21 mm, 25 µg/mL (≈ 62.8 µM) and 400 µg/mL (≈ 1000 µM).
For `C[Si]1(C)OB(O)c2ccc(SC3CC(=O)NC3=O)c(F)c21` (stereo not shown) [Compound 13, 3-((7-Fluoro-3-hydroxy-1,1-dimethyl-1,3-dihydrobenzo[c][1,2,5]oxasilaborol-6-yl)thio)pyrrolidine-2,5-dione], the “diameter of inhibition zone” value with K. pneumoniae ATCC 13883 ((-) = zone not observed, paper discs 9 mm) is 19 mm. In the experiment with K. pneumoniae ATCC 13883, the “-fold reduction of MIC in the presence of PAβN” value is given as 4 -fold and the MIC was 200 µg/mL (≈ 615 µM). In the experiment with S. aureus ATCC 6538P, the “diameter of inhibition zone” value is recorded as 20 mm and the MIC came out at 25 µg/mL (≈ 76.9 µM). Besides, in the experiment with S. aureus ATCC 6538P (setting [1]), the MBC is 200 µg/mL (≈ 615 µM).
On to `C[Si]1(C)OB(O)c2cc(F)c(SCCC(=O)OCCCCCC[n+]3ccccc3)c(F)c21` [Compound 18, 1-(6-((3-((5,7-difluoro-3-hydroxy-1,1-dimethyl-1,3-dihydrobenzo[c][1,2,5]oxasilaborol-6-yl)thio)propanoyl)oxy)hexyl)pyridin-1-ium trifluoromethanesulfonate], for which the MIC in the experiment on K. pneumoniae ATCC 13883 was over 400 µg/mL; in the experiment with S. aureus ATCC 6538P, 25 µg/mL. Moreover, the “diameter of inhibition zone” value with S. aureus ATCC 6538P stood at 19 mm. The MBC with S. aureus ATCC 6538P (setting [1]) worked out at 100 µg/mL.
On the same counts, the results for `C[Si]1(C)OB(O)c2ccc(SCCC(=O)OCCCCCC[n+]3ccccc3)c(F)c21` [Compound 19, 1-(6-((3-((7-Fluoro-3-hydroxy-1,1-dimethyl-1,3-dihydrobenzo[c][1,2,5]oxasilaborol-6-yl)thio)propanoyl)oxy)hexyl)pyridin-1-ium trifluoromethanesulfonate] are over 400 µg/mL, 25 µg/mL, 20 mm and 100 µg/mL.
On the same counts, the results for `C[Si]1(C)OB(O)c2ccc(SCCS(=O)(=O)c3ccccc3)c(F)c21` [Compound 21, 7-Fluoro-1,1-dimethyl-6-((2-(phenylsulfonyl)ethyl)thio)benzo[c][1,2,5]oxasilaborol-3(1H)-ol] are over 400 µg/mL, 12.5 µg/mL (≈ 31.5 µM), 26 mm and 200 µg/mL (≈ 505 µM).
On the same counts, the results for `C[Si]1(C)OB(O)c2cc(F)c(S(=O)(=O)Cl)c(F)c21` [Compound 26, 5,7-Difluoro-3-hydroxy-1,1-dimethyl-1,3-dihydrobenzo[c][1,2,5]oxasilaborole-6-sulfonyl chloride] are over 400 µg/mL, 200 µg/mL, 14 mm and 400 µg/mL.
